Laboratory results from patent US11008313B2, “Substituted 1-methyl-1,2,3,4-tetrahydroisoquinoline molecules as PCSK9 allosteric binders” (Merck Sharp & Dohme Corp., priority 2016, dated 2021).

Legend:
PCSK9 [1] = biological target: T1, PCSK9 (Homo sapiens, UniProt Q8NBP7); experiment: Fluorescence polarization competition binding assay (probe: compound of Example 57); details: 2 μM PCSK9, 50 nM compound of Example 57 as probe, overnight incubation; read-out: FP IC
Experimental: Relative compound affinities were determined using a competition binding assay with a fluorescence polarization format. Solution (49 μL) containing 2 μM PCSK9 and 50 nM compound of Example 57 in 20 mM HEPES (pH 7.5)/150 mM NaCl/1 mM CaCl2/0.005% P-20 was dispensed to wells of a 384-well black non-binding microplate before the addition of 1 μL of test compound or DMSO. After mixing, the plate was centrifuged and sealed for overnight incubation in the dark. The anisotropy signal was read using a fluorescence polarization protocol on a Perkin-Elmer Envision plate reader. The % inhibition was determined relative to the window defined by the DMSO control wells and wells containing 50 nM probe in the absence of PCSK9.

PCSK9 [2] = biological target: T1, PCSK9; experiment: Differential scanning calorimetry (DSC) assay, direct binding / thermal stabilization of PCSK9; details: Tm(with compound)−Tm(no compound); 2 μM PCSK9, 300 μM test compound
Experimental: Differential scanning calorimetry (DSC) was used as a biophysical method to confirm direct binding to PCSK9. A solution containing 2 μM PCSK9 with or without 300 μM test compound in 25 mM HEPES (pH 7.5)/150 mM NaCl/1 mM CaCl2/3.75% DMSO was transferred to the sample cell of the DSC instrument, while buffer alone was placed in the reference cell. Both cells were heated at a constant rate (200° C./hr) from 20-80° C. while recording the excess heat capacity of the sample cell relative to the reference cell. Each thermogram was analyzed to provide the melting temperature (Tm) of the protein.
The higher the temperature shift generally, the higher the affinity.

T1 sequence (Q8NBP7 153-692): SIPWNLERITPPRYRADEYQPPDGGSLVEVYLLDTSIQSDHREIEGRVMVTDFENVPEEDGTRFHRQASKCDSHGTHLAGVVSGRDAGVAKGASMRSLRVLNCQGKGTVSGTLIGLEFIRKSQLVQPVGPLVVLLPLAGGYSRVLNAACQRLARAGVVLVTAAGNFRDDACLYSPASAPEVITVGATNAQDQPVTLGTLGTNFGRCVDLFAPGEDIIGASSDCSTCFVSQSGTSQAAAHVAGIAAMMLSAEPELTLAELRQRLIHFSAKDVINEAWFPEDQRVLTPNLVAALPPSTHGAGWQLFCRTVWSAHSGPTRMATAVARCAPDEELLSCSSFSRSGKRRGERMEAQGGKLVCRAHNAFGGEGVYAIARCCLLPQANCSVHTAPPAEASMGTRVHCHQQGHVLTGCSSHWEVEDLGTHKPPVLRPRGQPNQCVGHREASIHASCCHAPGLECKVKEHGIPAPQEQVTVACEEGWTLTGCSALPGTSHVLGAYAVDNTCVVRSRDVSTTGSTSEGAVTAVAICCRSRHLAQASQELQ

Row | SMILES | IC50 (PCSK9 [1]) [nM] | ΔTm at 300 µM (PCSK9 [2]) [°C]
1 | COc1cc2c(cc1Oc1ccc(-c3ccc(CC(=O)O)cc3)cc1)[C@@](C)(CC(=O)Nc1nccs1)NCC2 [Example 36, (R)-2-(4′-((6-methoxy-1-methyl-1-(2-oxo-2-(thiazol-2-ylamino)ethyl)-1,2,3,4-tetrahydroisoquinolin-7-yl)oxy)-[1,1′-biphenyl]-4-yl)acetic acid] | 767 | 5.56
2 | COc1cc2c(cc1Oc1ccc(-c3ccc(C(=O)O)cc3F)nc1)[C@@](C)(CC(=O)Nc1nccs1)NCC2 [Example 33, (R)-3-fluoro-4-(5-((6-methoxy-1-methyl-1-(2-oxo-2-(thiazol-2-ylamino)ethyl)-1,2,3,4-tetrahydroisoquinolin-7-yl)oxy)pyridin-2-yl)benzoic acid] | 560 | 5.2
3 | COc1ccc(-n2nc(-c3cn(CCOc4cc5c(cc4Oc4ccc(C(=O)O)c(F)c4)[C@@](C)(CC(=O)Nc4nccs4)NCC5)nn3)cc(C)c2=O)cc1 [Example 43, (R)-2-fluoro-4-((6-(2-(4-(1-(4-methoxyphenyl)-5-methyl-6-oxo-1,6-dihydropyridazin-3-yl)-1H-1,2,3-triazol-1-yl)ethoxy)-1-methyl-1-(2-oxo-2-(thiazol-2-ylamino)ethyl)-1,2,3,4-tetrahydroisoquinolin-7-yl)oxy)benzoic acid] | 418 | 5.45
4 | COc1cc2c(cc1Oc1ccc(C(=O)O)c(F)c1)[C@@](C)(CC(=O)Nc1nccs1)NCC2 [Example 4, (R)-2-fluoro-4-((6-methoxy-1-methyl-1-(2-oxo-2-(thiazol-2-ylamino)ethyl)-1,2,3,4-tetrahydroisoquinolin-7-yl)oxy)benzoic acid] | 487 | 7.06
5 | COc1cc2c(cc1Oc1ccc(-c3ccc(CCC(=O)O)cc3)cc1)[C@@](C)(CC(=O)Nc1nccs1)NCC2 [Example 30, (R)-3-(4′-((6-methoxy-1-methyl-1-(2-oxo-2-(thiazol-2-ylamino)ethyl)-1,2,3,4-tetrahydroisoquinolin-7-yl)oxy)-[1,1′-biphenyl]-4-yl)propanoic acid] | 450 | 5.48

More lines, now with the values ahead:

Row | IC50 (PCSK9 [1]) [nM] | ΔTm at 300 µM (PCSK9 [2]) [°C] | SMILES
6 | 420 | 7.31 | C[C@]1(CC(=O)Nc2nccs2)NCCc2cc(OCC3CCCO3)c(Oc3ccc(C(=O)O)cc3)cc21 (stereo partly drawn) [Example 67, 4-(((1R)-1-methyl-1-(2-oxo-2-(thiazol-2-ylamino)ethyl)-6-((tetrahydrofuran-2-yl)methoxy)-1,2,3,4-tetrahydroisoquinolin-7-yl)oxy)benzoic acid]
7 | 551 | 7.98 | C[C@]1(CC(=O)Nc2nccs2)NCCc2cc(OCC3CCCCO3)c(Oc3ccc(C(=O)O)c(F)c3)cc21 (single isomer, unassigned) [Example 70, 2-fluoro-4-(((1R)-1-methyl-1-(2-oxo-2-(thiazol-2-ylamino)ethyl)-6-(((R or S)-tetrahydro-2H-pyran-2-yl)methoxy)-1,2,3,4-tetrahydroisoquinolin-7-yl)oxy)benzoic acid]
8 | 550 | 6.09 | C[C@]1(CC(=O)Nc2nccs2)NCCc2cc(OCC3CCCCO3)c(Oc3cccc(F)c3)cc21 (single isomer, unassigned) [Example 80, 2-((1R)-7-(3-fluorophenoxy)-1-methyl-6-(((R or S)-tetrahydro-2H-pyran-2-yl)methoxy)-1,2,3,4-tetrahydroisoquinolin-1-yl)-N-(thiazol-2-yl)acetamide]
9 | 1.17 | 6.18 | COc1cccc(NC(=O)C[C@@]2(C)NCCc3cc(OCC4CCCCO4)c(Oc4ccc(Br)c(F)c4)cc32)c1 (stereo partly drawn) [Example 86, 2-((1R)-7-(4-bromo-3-fluorophenoxy)-1-methyl-6-((tetrahydro-2H-pyran-2-yl)methoxy)-1,2,3,4-tetrahydroisoquinolin-1-yl)-N-(3-methoxyphenyl)acetamide]
